Values belong to the molecule of their own block, whether it stands above or below them.
Columns and labels:
[1] = biological target: T1, mTRPV3 (Mus musculus, UniProt Q8K424, A9V); assay: Whole-cell voltage-clamp recording of mTRPV3 transfected HEK293T cells; assay type: cell-based; settings: for TRPV3 activity (whole cell current): mTRPV3 transfected HEK293T cells
T1 construct: transiently transfected with plasmid DNA containing polynucleotide encoding; expressed in transfected cells; host or cells: HEK293T (ATCC CRL-11268), transient
T1 sequence (Q8K424 1-791 A9V): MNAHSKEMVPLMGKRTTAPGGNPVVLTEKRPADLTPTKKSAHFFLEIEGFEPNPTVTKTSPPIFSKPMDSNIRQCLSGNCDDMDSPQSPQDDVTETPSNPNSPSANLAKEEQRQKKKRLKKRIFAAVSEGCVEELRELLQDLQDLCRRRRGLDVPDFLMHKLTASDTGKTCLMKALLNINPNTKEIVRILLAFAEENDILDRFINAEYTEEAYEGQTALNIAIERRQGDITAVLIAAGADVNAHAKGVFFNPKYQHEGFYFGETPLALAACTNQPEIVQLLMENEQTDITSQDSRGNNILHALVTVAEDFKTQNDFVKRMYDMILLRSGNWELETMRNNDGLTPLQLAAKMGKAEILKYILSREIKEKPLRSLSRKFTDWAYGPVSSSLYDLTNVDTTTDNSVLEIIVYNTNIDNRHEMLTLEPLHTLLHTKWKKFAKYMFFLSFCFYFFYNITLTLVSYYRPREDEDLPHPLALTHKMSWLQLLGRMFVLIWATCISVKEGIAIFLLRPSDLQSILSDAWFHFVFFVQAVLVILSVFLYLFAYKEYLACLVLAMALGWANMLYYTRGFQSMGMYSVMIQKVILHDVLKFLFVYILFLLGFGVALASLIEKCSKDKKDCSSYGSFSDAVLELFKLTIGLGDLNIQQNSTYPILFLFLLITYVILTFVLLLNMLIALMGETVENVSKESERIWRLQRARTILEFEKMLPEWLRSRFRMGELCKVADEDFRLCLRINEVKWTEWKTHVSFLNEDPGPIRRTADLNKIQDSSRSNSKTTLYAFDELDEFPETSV
Description: (§1) HEK293T cell line (ATCC CRL-11268) was transiently transfected with plasmid DNA containing polynucleotide encoding […] (SEQ. ID. NO: 1), rTRPV2 (SEQ. ID. NO: 2), mTRPV3 (SEQ. ID. NO: 3), rTRPV4 (SEQ. ID. NO: 4), mTRPM8 (SEQ. ID. NO: 5) or mTRPA1 (SEQ. ID. NO: 6).
(§2) Particularly, the HEK293T cell line was transiently transfected with 3 μg/35 mm dish of rTRPV1, rTRPV2, mTRPV3, rTRPV4, mTRPM8 and mTRPA1 plasmid DNA, and 600 ng/well of pCDNA3 (Invitrogen Corp., USA; containing green fluorescent protein (GFP) cDNA) using Fugene6 (Roche Diagnostics, USA) according to manufacturer's instruction. The transformed cells were cultured in DMEM/F12 medium containing 10% FBS and 1% penicillin/streptomycin in a CO2 incubator for 24 hours. The cells were smeared on poly-L-lysine-coated glass coverslips, followed by further culture for 10-24 hours.
The mTRPV3 transfected cell line prepared in Example 1 was treated with 1 μM of FPP (Biomol, USA), 4 mM of camphor (Sigma-Aldrich, USA) and ruthenium red (RR; Sigma-Aldrich, USA) at a required time intervals as shown in FIG. 1a. Stock solutions were made using water or DMSO, and were diluted with test solutions before use.
Whole-cell voltage-clamp recording, one of the patch-clamp techniques, was performed with the transfected cell line of Example <1-1> according to the method of Bandel M, et al. (Neuron 41:849-857, 2004).
Particularly, the extracellular solution (140 mM NaCl, 5 mM KCl, 2 mM CaCl2, 1 mM MgCl2, 10 mM HEPES; titrated to pH 7.4 with NaOH) and the pipette solution (140 mM CsCl, 5 mM EGTA, 10 mM HEPES, 2.0 mM MgATP, 0.2 mM NaGTP; titrated to pH 7.2 with CSOH) were used. The potential was held at −60 mV for 250 ms, voltage-ramp pulsed from −80 mV to +80 mV for […] and returned to −60 mV for 250 ms, which was repeated without intersweep. This experiment was repeated 5 times.

[2] = test system: HaCat skin cells; assay: Artificial wound recovery: migration and proliferation of HaCat skin cells; assay type: cell-based; settings: 1 μM of FPP, 12 hours after the treatment
Description: HaCat (ATCC, CCL-228) cell line was seeded in a 24-well plate. The present inventors drew lines 1 mm deep on the well fully filled with the cells to make artificial wound. The wounded cells were treated with FPP (1 μM), camphor (4 mM), RR (20 μM) and GGPP (10 μM) respectively and incubated in a CO2 incubator for 12 hours. The control group was not-treated. The width of recovered wound was measured under microscope and compared with that at the beginning, which was presented as wound recovery rate. All the experiments were performed on DMEM/FBS. Floating cells, which means dead cells, after making wound, were eliminated by using PBS to eliminate variables caused by dead cells. The cells were observed under microscope (×40, IX 71 OLYMPUS), and distance was measured by using image analysis program (Meta-flour 7.1, Molecular Devices, USA).

[3] = biological target: T2, mTRPM8 (Mus musculus, UniProt Q8R4D5); assay: Fluo-3 calcium imaging of TRPM8 transfected HEK293T cells; assay type: cell-based; settings: 1 μM of FPP
T2 construct: transiently transfected with plasmid DNA containing polynucleotide encoding; expressed in transfected cells; host or cells: HEK293T (ATCC CRL-11268), transient
T2 sequence (Q8R4D5 whole entry): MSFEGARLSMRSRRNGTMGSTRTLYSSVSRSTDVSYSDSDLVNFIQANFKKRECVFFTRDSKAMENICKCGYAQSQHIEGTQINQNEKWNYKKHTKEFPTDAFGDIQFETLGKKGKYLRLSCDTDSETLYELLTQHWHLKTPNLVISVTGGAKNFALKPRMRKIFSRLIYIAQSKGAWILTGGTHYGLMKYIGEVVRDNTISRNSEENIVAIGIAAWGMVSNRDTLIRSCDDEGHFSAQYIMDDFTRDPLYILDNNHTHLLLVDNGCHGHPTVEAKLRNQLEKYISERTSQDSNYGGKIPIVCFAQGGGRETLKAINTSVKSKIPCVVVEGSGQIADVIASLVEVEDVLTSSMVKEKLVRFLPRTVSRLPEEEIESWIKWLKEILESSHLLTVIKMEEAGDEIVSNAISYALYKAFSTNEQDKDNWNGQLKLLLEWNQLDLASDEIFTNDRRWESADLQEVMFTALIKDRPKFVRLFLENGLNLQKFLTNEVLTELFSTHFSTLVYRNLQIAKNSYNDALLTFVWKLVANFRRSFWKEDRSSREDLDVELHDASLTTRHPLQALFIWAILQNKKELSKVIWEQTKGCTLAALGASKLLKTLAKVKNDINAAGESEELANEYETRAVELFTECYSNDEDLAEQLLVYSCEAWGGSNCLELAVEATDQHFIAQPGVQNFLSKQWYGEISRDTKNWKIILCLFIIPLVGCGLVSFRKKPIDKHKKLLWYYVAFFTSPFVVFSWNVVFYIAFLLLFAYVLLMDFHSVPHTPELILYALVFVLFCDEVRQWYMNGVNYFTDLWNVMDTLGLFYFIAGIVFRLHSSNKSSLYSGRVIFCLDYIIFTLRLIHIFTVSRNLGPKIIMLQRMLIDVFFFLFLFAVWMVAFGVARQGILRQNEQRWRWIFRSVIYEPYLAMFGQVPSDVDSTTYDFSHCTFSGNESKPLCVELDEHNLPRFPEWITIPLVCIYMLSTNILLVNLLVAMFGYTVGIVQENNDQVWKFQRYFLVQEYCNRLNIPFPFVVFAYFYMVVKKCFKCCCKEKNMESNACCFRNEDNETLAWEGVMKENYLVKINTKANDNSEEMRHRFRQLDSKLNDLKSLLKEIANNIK
Description: as §1, §2
(§3) Particularly, the transfected cell line of Example <3-1> was loaded with Fluo-3AM (5 μM; Sigma Aldrich, USA) in the bath solution (140 mM NaCl, 5 mM KCl, 2 mM CaCl2, 1 mM MgCl2, 10 mM HEPES; adjusted to pH 7.4 with NaOH) containing 0.02% pluronic acid (Invitrogen, USA) at 37° C. for 1 hour. Calcium imaging was performed with LSM5 Pascal confocal microscope (Carl Zeiss, Germany), and time-lapse images (excitation 488 nm/emission 514 nm) were collected every 3 seconds using Carl Zeiss ratio tool software (Carl Zeiss, Germany). […]

[4] = test system: mice; assay: Acute hind paw licking/flicking behaviors after CFA inflammatory sensitization; assay type: in vivo; settings: CFA-injected right hind paw, FPP injected into hind paw, 20 minutes
Description: Inflammatory sensitization by FPP was investigated. Particularly, 10 μl of CFA (complete Freund's adjuvant; Sigma Aldrich, USA) was injected to the right hind paws of mice 24 hours before the FPP injection. Before the experiment, the mice were adapted for one hour to the experimental environment. 10 μl of vehicle (saline containing 3% DMSO and 0.5% Tween 80) alone or 10 μl of vehicle containing FPP (3 mM) was injected to the right hind paws of the mice. The time spent for the hind paw licking/flicking behaviors in mice were measured according to the method of Bandell M, et al. (Neuron 41:849-857, 2004) and Moqrich A, et al. (Science 307:1468-1472, 2005), for 20 minutes. Control: not-treated; Experimental group 1.20 μl of CFA+300 μM of FPP PBS solution (black circle); Experimental group 2.20 μl of CFA (white circle).

[5] = biological target: T1, mTRPV3; assay: Fluo-3 calcium imaging of mTRPV3 transfected HEK293T cells; assay type: cell-based
Description: as §1, §2
The mTRPV3 transfected cell line prepared in Example 1 was treated with FPP at different concentrations from 0.1 to 1,000 nM.
Particularly, the transfected cell line of Example <3-1> was loaded with Fluo-3AM (5 μM; Sigma Aldrich, USA) in the bath solution (140 mM NaCl, 5 mM KCl, 2 mM CaCl2, 1 mM MgCl2, 10 mM HEPES; adjusted to pH 7.4 with NaOH) containing 0.02% pluronic acid (Invitrogen, USA) at 37° C. for 1 hour. Calcium imaging was performed with LSM5 Pascal confocal microscope (Carl Zeiss, Germany), and time-lapse images (excitation 488 nm/emission 514 nm) were collected every 3 seconds using Carl Zeiss ratio tool software (Carl Zeiss, Germany). Mean value curve of calcium influx response (n=12−62 per each experimental values) was made by Hill plot.
(§4) The TRPA1, TRPV1, TRPV2, TRPV3, TRPV4 and TRPM8 transfected cell lines prepared by the method of Example 1 and the non-transfected HEK cell line (control group) were treated with 1 μM of FPP. Calcium imaging was performed with the transfected cell lines treated as the above by the same manner as described in Example <3-2>.
as §4, with “with 10” for “with 1”, “of IPP (isopentenyl pyrophosphate: Biomol, USA) and 10 μM of GGPP (geranyl-geranyl pyrophosphate: Biomol, USA), the TRPV3 regulator analogues.” for “of FPP.”

[6] = biological target: T3, rTRPV4 (Rattus norvegicus, UniProt Q9ERZ8); assay: Fluo-3 calcium imaging of TRPV4 transfected HEK293T cells; assay type: cell-based; settings: 1 μM of FPP
T3 construct: transiently transfected with plasmid DNA containing polynucleotide encoding; expressed in transfected cells; host or cells: HEK293T (ATCC CRL-11268), transient
T3 sequence (Q9ERZ8 whole entry): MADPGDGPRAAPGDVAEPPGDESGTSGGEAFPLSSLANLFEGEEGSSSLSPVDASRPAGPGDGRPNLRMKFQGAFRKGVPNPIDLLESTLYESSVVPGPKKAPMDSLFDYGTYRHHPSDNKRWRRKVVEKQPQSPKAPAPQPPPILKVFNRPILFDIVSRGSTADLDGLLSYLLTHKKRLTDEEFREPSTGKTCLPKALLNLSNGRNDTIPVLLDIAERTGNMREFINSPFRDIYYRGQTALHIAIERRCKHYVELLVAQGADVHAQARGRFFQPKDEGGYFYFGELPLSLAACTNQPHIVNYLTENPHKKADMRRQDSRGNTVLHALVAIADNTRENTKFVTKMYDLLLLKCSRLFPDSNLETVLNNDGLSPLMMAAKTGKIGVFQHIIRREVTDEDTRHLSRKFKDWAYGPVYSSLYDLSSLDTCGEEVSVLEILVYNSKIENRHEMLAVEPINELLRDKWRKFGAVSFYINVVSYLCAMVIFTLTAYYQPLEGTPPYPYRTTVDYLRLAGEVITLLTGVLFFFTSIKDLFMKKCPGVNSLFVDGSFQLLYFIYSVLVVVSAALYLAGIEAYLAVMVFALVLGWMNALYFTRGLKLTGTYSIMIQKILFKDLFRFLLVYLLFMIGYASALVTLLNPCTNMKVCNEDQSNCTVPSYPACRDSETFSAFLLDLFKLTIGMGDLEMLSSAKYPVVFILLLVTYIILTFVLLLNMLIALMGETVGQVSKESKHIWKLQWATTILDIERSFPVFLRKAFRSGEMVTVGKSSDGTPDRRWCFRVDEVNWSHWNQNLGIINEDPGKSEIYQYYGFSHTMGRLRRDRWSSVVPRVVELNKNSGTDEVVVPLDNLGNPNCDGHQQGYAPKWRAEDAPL
Description: as §1, §2, §3

[7] = biological target: T4, mTRPA1 (Mus musculus, UniProt Q8BLA8); assay: Fluo-3 calcium imaging of TRPA1 transfected HEK293T cells; assay type: cell-based; settings: 1 μM of FPP
T4 construct: transiently transfected with plasmid DNA containing polynucleotide encoding; expressed in transfected cells; host or cells: HEK293T (ATCC CRL-11268), transient
T4 sequence (Q8BLA8 whole entry): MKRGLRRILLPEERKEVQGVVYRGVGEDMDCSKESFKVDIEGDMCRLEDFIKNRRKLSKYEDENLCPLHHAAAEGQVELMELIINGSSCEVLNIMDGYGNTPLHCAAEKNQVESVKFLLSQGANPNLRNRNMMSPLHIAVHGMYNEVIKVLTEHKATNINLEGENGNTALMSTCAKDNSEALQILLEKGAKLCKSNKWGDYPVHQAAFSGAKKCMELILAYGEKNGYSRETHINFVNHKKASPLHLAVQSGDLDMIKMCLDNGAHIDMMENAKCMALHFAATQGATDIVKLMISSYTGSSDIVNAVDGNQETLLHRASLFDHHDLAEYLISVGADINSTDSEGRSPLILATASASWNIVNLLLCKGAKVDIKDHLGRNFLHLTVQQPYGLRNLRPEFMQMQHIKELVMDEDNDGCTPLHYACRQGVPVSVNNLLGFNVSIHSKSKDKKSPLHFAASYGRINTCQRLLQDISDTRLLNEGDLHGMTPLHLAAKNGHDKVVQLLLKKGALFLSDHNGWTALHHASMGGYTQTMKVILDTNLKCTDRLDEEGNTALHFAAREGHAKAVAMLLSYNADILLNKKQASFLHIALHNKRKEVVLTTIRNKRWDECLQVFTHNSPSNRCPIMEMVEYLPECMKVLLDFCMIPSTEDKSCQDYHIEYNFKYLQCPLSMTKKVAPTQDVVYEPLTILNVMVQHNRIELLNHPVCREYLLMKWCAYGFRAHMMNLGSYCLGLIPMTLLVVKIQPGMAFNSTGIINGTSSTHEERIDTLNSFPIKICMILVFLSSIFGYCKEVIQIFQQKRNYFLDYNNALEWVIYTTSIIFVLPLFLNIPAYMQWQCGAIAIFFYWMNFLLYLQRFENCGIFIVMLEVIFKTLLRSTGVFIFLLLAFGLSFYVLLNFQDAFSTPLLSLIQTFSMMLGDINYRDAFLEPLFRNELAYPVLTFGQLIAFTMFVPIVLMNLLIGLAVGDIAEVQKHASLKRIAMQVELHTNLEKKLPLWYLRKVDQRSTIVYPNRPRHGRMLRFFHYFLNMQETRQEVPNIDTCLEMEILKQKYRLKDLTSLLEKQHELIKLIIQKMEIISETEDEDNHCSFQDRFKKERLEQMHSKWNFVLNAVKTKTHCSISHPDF
Description: as §1, §2, §3

[8] = biological target: T5, rTRPV1 (Rattus norvegicus, UniProt O35433); assay: Fluo-3 calcium imaging of TRPV1 transfected HEK293T cells; assay type: cell-based; settings: 1 μM of FPP
T5 construct: transiently transfected with plasmid DNA containing polynucleotide encoding; expressed in transfected cells; host or cells: HEK293T (ATCC CRL-11268), transient
T5 sequence (O35433 whole entry): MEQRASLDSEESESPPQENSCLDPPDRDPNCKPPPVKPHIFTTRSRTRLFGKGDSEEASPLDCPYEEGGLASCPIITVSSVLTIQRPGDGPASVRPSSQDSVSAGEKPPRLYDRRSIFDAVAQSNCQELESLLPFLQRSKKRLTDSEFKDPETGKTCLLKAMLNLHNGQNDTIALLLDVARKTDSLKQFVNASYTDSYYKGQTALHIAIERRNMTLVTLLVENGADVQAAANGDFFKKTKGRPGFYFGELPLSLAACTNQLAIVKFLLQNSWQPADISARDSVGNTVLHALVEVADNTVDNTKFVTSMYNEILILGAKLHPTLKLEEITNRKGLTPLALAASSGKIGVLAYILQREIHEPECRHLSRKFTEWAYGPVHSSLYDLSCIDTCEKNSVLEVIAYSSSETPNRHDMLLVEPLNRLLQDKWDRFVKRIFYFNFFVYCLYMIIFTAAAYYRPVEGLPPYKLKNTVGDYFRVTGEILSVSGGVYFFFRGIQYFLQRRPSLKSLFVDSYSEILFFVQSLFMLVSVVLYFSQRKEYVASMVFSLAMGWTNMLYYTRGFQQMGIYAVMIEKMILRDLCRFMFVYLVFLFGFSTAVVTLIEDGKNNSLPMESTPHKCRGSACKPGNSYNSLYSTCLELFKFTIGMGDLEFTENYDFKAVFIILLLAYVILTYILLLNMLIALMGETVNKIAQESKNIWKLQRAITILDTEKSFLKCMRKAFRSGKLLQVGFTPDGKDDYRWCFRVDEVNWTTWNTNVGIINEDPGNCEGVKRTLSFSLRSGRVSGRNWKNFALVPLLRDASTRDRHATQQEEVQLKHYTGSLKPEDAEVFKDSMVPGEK
Description: as §1, §2, §3

[9] = biological target: T6, rTRPV2 (Rattus norvegicus, UniProt Q9WUD2, A713V/L151P/T158I); assay: Fluo-3 calcium imaging of TRPV2 transfected HEK293T cells; assay type: cell-based; settings: 1 μM of FPP
T6 construct: transiently transfected with plasmid DNA containing polynucleotide encoding; expressed in transfected cells; host or cells: HEK293T (ATCC CRL-11268), transient
T6 sequence (Q9WUD2 1-761 L151P/T158I/A713V): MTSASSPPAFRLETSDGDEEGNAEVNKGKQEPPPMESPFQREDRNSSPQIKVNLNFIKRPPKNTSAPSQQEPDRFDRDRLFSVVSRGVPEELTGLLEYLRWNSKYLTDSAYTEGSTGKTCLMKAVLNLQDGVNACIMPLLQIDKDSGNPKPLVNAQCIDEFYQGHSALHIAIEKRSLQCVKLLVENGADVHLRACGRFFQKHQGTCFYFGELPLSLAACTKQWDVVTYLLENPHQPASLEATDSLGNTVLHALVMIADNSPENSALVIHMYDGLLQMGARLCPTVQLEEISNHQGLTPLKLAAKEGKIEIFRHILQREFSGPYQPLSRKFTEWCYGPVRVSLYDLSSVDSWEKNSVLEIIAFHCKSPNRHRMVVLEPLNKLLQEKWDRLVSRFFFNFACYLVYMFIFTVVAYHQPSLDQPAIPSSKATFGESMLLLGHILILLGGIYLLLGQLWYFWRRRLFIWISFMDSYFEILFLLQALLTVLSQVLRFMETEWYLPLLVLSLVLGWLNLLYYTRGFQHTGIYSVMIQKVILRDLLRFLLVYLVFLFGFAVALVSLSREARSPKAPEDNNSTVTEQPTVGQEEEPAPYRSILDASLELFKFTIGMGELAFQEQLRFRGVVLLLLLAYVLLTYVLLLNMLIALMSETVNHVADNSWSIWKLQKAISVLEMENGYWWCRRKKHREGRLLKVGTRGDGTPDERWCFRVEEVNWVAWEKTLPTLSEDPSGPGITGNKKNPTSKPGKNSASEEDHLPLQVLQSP
Description: as §1, §2, §3

TRPV3 activity (whole cell current) on treatment with the TRP ion channel blocker ([1]; ruthenium red applied to the activated mTRPV3 transfected cells): activity was reduced
SMILES: N.N.N.N.N.N.N.N.N.N.N.N.N.N.[Cl-].[Cl-].[Cl-].[Cl-].[Cl-].[Cl-].[O-2].[O-2].[Ru+3].[Ru+3].[Ru+4] [ruthenium red]

TRPV3 activity (whole cell current) ([1]; 1 μM of FPP, +60 mV and −60 mV): significant increase of TRPV3 activity
TRPM8 activation (calcium imaging) [3]: did not exhibited activity
TRPV3 activation (calcium imaging) ([5]; 1 μM of FPP): activated
maximal effective dose ([5]; calcium influx response, FPP 0.1 to 1,000 nM): approximately 1 μM
EC50 ([5]; calcium influx response, FPP 0.1 to 1,000 nM, Hill plot, read-out: EC50 (effective concentration 50%) to TRPV3): 31.9 nM
TRPV4 activation (calcium imaging) [6]: did not exhibited activity
TRPA1 activation (calcium imaging) [7]: did not exhibited activity
TRPV1 activation (calcium imaging) [8]: did not exhibited activity
TRPV2 activation (calcium imaging) [9]: did not exhibited activity
SMILES: CC(C)=CCCC(C)=CCCC(C)=CCOP(=O)(O)OP(=O)(O)O [FPP, 3,7,11-trimethyldodeca-2,6,10-trien-1-yl trihydrogen diphosphate]
migration and proliferation of HaCat skin cells (wound recovery rate) [2]: significantly inhibited
hind paw licking/flicking behavior (pain) [4]: significantly increased licking/flicking behavior

TRPV3 activity (whole cell current) ([1]; camphor 4 mM): the activity was not so much increased
SMILES: CC12CCC(CC1=O)C2(C)C (centres unmarked) [camphor]

SMILES: CC(C)=CCC/C(C)=C/CC/C(C)=C/CC/C(C)=C/COP(=O)(O)OP(=O)(O)O [GGPP, geranyl-geranyl pyrophosphate, reference compound]
TRPV3 activation (calcium imaging) ([5]; 10 μM of analogue): did not induce TRPV3 activation

Source: patent publication US7763429B2, “Compound containing farnesyl diphosphate for modulating TRPV3 function and use thereof” (Korea University Industry and Academic Collaboration …, priority 2008, dated 2010)
